Data: the kinase profiling compilation of Christmann-Franck et al. (2016)

How the values were obtained:
Experiment in all cases: KINOMEscan competition binding
Settings in all cases: compound 10.0 µM
SRC (human) = SRC (human) (UniProt P12931)
MAP4K1 (human) = MAP4K1 (human) (UniProt Q92918)
RIPK1 (human) = RIPK1 (human) (UniProt Q13546)
CSK (human) = CSK (human) (UniProt P41240)
[1] = biological target: JAK1 JH2 pseudokinase (human) (UniProt P23458)
RAF1 (human) = RAF1 (human) (UniProt P04049)
RIOK1 (human) = RIOK1 (human) (UniProt Q9BRS2)
PLK4 (human) = PLK4 (human) (UniProt O00444)
SIK1 (human) = SIK1 (human) (UniProt P57059)
[2] = test system: KIT (human), P10721 [V559D]
PIP4K2C (human) = PIP4K2C (human) (UniProt Q8TBX8)
FGFR1 (human) = FGFR1 (human) (UniProt P11362)
CaMK1 (human) = CaMK1 (human) (UniProt Q14012)
MYLK (human) = MYLK (human) (UniProt Q15746)
[3] = test system: RET (human), P07949 [V804M]
AURKB (human) = AURKB (human) (UniProt Q96GD4)
NTRK1 (human) = NTRK1 (human) (UniProt P04629)
GRK7 (human) = GRK7 (human) (UniProt Q8WTQ7)
[4] = test system: PIK3CA (human), P42336 [E545K]
MAP4K2 (human) = MAP4K2 (human) (UniProt Q12851)
MELK (human) = MELK (human) (UniProt Q14680)
PTK6 (human) = PTK6 (human) (UniProt Q13882)
MAP3K1 (human) = MAP3K1 (human) (UniProt Q13233)
RPS6KA1 KD2 (human) = RPS6KA1 KD2 (human) (UniProt Q15418)
SYK (human) = SYK (human) (UniProt P43405)
PI4KB (human) = PI4KB (human) (UniProt Q9UBF8)
PAK6 (human) = PAK6 (human) (UniProt Q9NQU5)
MARK4 (human) = MARK4 (human) (UniProt Q96L34)
LATS1 (human) = LATS1 (human) (UniProt O95835)
PKN2 (human) = PKN2 (human) (UniProt Q16513)
[5] = test system: EGFR (human), P00533 [L858R]
[6] = test system: LRRK2 (human), Q5S007 [G2019S]
MAP3K15 (human) = MAP3K15 (human) (UniProt Q6ZN16)
PRKCE (human) = PRKCE (human) (UniProt Q02156)
CAMKK2 (human) = CAMKK2 (human) (UniProt Q96RR4)
AKT2 (human) = AKT2 (human) (UniProt P31751)
MYLK2 (human) = MYLK2 (human) (UniProt Q9H1R3)
NUAK2 (human) = NUAK2 (human) (UniProt Q9H093)
MAPK11 (human) = MAPK11 (human) (UniProt Q15759)
PIK3C2G (human) = PIK3C2G (human) (UniProt O75747)
MYLK3 (human) = MYLK3 (human) (UniProt Q32MK0)

Sequence of SRC (human) (P12931 whole entry, looked up): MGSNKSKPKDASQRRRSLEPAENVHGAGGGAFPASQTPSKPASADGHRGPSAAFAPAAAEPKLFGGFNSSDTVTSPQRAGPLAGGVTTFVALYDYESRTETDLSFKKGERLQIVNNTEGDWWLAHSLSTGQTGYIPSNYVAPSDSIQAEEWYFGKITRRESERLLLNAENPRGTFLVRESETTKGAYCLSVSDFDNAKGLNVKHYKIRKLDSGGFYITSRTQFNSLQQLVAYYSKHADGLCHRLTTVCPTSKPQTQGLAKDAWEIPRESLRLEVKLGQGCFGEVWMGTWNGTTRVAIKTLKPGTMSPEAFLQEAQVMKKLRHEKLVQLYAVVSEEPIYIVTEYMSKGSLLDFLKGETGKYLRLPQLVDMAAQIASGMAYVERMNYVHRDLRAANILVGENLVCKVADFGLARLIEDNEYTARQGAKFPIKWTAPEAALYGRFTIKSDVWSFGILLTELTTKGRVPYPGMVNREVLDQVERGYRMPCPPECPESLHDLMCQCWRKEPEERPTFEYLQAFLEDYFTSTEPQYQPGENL
Sequence of CSK (human) (P41240 whole entry, looked up): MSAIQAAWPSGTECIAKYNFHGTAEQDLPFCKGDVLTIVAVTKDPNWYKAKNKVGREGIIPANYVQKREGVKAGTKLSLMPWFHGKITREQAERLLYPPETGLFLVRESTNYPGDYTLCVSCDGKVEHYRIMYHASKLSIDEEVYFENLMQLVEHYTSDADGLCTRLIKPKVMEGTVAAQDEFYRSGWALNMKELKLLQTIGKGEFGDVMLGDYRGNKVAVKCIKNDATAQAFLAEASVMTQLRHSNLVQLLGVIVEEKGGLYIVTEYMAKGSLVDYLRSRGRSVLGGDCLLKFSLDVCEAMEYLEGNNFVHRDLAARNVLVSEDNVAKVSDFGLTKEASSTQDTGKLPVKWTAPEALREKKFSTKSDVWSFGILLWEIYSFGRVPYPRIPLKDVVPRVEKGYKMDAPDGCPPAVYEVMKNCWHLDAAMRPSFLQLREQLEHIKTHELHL
Sequence of LATS1 (human) (O95835 whole entry, looked up): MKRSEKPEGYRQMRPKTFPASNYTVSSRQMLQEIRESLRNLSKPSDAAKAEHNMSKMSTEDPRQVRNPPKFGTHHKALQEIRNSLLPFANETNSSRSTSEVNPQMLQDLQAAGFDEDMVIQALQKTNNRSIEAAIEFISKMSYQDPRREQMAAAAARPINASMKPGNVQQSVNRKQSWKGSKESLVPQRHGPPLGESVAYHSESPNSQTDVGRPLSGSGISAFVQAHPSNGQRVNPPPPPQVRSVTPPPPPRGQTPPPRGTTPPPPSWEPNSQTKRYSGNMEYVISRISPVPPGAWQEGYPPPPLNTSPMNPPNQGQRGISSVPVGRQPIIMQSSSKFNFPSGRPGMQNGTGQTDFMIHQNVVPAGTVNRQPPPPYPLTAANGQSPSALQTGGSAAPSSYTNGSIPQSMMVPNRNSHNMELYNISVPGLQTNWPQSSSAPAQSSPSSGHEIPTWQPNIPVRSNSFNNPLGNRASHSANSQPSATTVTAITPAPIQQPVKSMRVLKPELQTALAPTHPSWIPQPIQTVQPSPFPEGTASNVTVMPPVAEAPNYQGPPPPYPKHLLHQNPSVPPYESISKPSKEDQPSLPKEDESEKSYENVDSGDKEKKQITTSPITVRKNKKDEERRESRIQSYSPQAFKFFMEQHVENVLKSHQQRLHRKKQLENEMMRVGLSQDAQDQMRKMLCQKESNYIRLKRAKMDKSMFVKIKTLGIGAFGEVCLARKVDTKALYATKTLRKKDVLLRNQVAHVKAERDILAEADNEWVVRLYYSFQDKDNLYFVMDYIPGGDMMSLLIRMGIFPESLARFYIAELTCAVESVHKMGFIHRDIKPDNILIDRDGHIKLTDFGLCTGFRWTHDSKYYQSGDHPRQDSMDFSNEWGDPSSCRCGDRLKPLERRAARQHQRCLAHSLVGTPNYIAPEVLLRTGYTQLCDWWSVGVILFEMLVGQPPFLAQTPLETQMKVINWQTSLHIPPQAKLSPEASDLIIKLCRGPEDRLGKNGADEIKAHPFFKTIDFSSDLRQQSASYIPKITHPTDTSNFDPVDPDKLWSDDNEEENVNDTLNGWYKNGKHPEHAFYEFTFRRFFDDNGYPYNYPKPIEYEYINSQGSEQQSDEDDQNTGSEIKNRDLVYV
Sequence of RAF1 (human) (P04049 whole entry, looked up): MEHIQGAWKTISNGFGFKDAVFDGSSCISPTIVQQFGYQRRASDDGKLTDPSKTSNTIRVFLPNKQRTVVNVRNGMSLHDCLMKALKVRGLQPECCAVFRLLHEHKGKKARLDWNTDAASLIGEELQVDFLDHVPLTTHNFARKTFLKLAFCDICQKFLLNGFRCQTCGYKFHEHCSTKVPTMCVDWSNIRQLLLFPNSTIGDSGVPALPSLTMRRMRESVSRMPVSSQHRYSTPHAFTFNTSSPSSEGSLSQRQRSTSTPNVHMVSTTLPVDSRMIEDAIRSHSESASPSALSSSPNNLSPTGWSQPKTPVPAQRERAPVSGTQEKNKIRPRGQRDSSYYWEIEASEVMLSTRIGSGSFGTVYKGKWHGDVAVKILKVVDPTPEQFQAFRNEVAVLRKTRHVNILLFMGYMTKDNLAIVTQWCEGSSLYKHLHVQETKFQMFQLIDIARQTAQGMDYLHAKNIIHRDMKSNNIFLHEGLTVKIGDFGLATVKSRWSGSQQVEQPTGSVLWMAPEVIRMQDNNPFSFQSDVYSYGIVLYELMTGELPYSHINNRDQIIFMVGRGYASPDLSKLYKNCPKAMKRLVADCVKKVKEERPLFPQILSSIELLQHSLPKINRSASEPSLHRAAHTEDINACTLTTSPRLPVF
Sequence of JAK1 JH2 pseudokinase (human) (P23458 whole entry, looked up): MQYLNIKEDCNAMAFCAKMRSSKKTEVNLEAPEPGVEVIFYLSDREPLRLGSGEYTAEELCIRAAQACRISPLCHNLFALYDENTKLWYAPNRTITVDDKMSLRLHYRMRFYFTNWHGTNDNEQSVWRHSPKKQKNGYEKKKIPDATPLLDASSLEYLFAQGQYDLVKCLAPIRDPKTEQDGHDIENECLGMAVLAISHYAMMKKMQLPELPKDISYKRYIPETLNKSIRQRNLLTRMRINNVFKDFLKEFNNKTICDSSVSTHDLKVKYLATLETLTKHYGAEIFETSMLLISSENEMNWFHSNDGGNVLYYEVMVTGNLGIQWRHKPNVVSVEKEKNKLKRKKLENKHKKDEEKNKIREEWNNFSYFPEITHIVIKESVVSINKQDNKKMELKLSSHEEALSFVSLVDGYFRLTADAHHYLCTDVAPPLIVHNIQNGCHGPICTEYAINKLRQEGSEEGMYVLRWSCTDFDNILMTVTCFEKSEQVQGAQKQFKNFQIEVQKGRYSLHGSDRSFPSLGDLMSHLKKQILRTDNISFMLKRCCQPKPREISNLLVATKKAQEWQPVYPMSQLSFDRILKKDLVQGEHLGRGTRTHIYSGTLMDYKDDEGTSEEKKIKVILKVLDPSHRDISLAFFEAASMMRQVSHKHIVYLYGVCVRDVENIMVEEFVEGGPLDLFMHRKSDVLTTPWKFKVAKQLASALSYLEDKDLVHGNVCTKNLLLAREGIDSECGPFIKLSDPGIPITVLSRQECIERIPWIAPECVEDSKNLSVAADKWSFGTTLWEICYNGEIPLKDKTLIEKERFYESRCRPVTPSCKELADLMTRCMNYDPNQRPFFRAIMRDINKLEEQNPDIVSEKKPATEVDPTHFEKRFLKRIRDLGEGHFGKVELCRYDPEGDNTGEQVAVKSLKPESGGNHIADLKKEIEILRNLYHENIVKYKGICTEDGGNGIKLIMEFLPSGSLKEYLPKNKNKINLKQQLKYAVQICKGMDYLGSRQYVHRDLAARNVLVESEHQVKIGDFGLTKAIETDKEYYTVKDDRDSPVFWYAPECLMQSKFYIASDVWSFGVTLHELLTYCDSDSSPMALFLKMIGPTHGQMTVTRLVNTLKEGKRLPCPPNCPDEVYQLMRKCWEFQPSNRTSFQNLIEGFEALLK
Sequence of MARK4 (human) (Q96L34 whole entry, looked up): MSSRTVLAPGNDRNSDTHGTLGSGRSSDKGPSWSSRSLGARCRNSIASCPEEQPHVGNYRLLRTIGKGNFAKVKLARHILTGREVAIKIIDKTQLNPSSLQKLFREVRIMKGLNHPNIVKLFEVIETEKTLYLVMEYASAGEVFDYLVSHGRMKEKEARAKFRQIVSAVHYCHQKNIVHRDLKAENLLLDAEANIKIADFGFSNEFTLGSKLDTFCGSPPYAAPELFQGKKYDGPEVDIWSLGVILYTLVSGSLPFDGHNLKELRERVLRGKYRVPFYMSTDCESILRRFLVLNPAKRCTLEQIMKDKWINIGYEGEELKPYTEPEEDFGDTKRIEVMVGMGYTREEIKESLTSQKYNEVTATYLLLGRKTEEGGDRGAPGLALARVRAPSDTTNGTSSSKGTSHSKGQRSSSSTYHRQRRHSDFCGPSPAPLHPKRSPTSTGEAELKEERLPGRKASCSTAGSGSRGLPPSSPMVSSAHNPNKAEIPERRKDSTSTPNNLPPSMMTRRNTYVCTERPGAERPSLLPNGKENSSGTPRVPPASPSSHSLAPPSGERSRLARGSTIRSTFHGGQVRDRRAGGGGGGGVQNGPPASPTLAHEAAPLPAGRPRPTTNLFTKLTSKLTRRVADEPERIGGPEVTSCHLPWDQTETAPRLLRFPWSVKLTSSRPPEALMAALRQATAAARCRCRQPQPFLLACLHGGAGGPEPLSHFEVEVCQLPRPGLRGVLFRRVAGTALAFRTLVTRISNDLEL
Sequence of AURKB (human) (Q96GD4 whole entry, looked up): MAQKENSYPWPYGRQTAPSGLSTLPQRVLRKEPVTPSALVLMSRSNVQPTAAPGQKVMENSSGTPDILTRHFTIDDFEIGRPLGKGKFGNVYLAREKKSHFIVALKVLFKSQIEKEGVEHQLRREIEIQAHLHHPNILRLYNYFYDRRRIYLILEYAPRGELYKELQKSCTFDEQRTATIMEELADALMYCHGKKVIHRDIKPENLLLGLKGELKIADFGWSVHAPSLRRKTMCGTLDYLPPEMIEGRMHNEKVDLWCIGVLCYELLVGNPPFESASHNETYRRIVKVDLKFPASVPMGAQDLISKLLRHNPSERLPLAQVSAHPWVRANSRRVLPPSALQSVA

COc1ccc(-c2ccc3c(N4CCOCC4)nc(N4C[C@@H](C)O[C@@H](C)C4)nc3n2)cc1CO
kinase still bound, per cent of control (SRC (human)): 100%
kinase still bound, per cent of control (MAP4K1 (human)): 88%
kinase still bound, per cent of control (RIPK1 (human)): 100%
kinase still bound, per cent of control (CSK (human)): 77%
kinase still bound, per cent of control [1]: 100%
kinase still bound, per cent of control (RAF1 (human)): 100%
kinase still bound, per cent of control (RIOK1 (human)): 51%
kinase still bound, per cent of control (PLK4 (human)): 100%
kinase still bound, per cent of control (SIK1 (human)): 90%
kinase still bound, per cent of control [2]: 90%
kinase still bound, per cent of control (PIP4K2C (human)): 87%
kinase still bound, per cent of control (FGFR1 (human)): 100%
kinase still bound, per cent of control (CaMK1 (human)): 90%
per cent of control (MYLK (human)): 57%
kinase still bound, per cent of control [3]: 94%
kinase still bound, per cent of control (AURKB (human)): 73%
kinase still bound, per cent of control (NTRK1 (human)): 72%
kinase still bound, per cent of control (GRK7 (human)): 100%
kinase still bound, per cent of control [4]: 2%
kinase still bound, per cent of control (MAP4K2 (human)): 86%
kinase still bound, per cent of control (MELK (human)): 97%
kinase still bound, per cent of control (PTK6 (human)): 100%
kinase still bound, per cent of control (MAP3K1 (human)): 100%
kinase still bound, per cent of control (RPS6KA1 KD2 (human)): 100%
kinase still bound, per cent of control (SYK (human)): 100%
kinase still bound, per cent of control (PI4KB (human)): 100%
kinase still bound, per cent of control (PAK6 (human)): 90%
kinase still bound, per cent of control (MARK4 (human)): 84%
kinase still bound, per cent of control (LATS1 (human)): 96%
kinase still bound, per cent of control (PKN2 (human)): 100%
kinase still bound, per cent of control [5]: 100%
kinase still bound, per cent of control [6]: 100%
kinase still bound, per cent of control (MAP3K15 (human)): 97%
kinase still bound, per cent of control (PRKCE (human)): 82%
kinase still bound, per cent of control (CAMKK2 (human)): 64%
kinase still bound, per cent of control (AKT2 (human)): 83%
kinase still bound, per cent of control (MYLK2 (human)): 78%
kinase still bound, per cent of control (NUAK2 (human)): 100%
kinase still bound, per cent of control (MAPK11 (human)): 98%
kinase still bound, per cent of control (PIK3C2G (human)): 43%
kinase still bound, per cent of control (MYLK3 (human)): 100%
